From patent US20130296372A1, “USE OF PRO-[…] UK-2A FOR CONTROL OF SOYBEAN RUST” (DOW AGROSCIENCES LLC, priority 2012, published 2013)

Tested on: soybean Asian rust—Phakopsora pachyrhizi (PHAKPA)
Experiment: Efficacy on soybean rust: greenhouse soybean plants sprayed, then inoculated with spore suspension
Type: in vivo, Phakopsora pachyrhizi on soybean plants
Details: pre-inoculation; for PHAKPA Control % 14 DAA: 14 days after application; for PHAKPA Control % 12 DAA: 12 days after application
Protocol: Soybean plants were inoculated with an aqueous spore suspension of the fungal pathogen (soybean Asian rust—Phakopsora pachyrhizi) at 2 h and 24 h post compound application. Additionally, infected untreated plants with sporulating lesions were placed among the test pots throughout the duration of the tests. The soybean plants were propagated from seed in a greenhouse, at a density of 3 seeds per pot containing a sandy loam. The plants were sprayed at growth stage V2 to V3 (2-3 trifoliates developed) and subsequently inoculated with the pathogen at the time intervals indicated above. Following inoculation, the plants were maintained under conditions of high humidity and at 26° C. to support spore germination and host leaf colonization. Assessments were made 12-15 days after inoculation. Aliquots of a 10% SC formulation of Compound I were diluted into water to achieve spray solutions containing 25, 100 and 400 ppm of the active ingredient. The spray solutions were also supplemented with either Trycol 5941 or one of several alternative adjuvant chemistries. Treatment solutions were sprayed to run-off using a hand held sprayer.

[1] = 400 ppm Compound I + Trycol 5941 0.2 % v/v

COc1ccnc(C(=O)N[C@H]2COC(=O)[C@H](Cc3ccccc3)[C@@H](OC(=O)C(C)C)[C@H](C)OC2=O)c1OCOC(=O)C(C)C [Compound I]
PHAKPA Control % 14 DAA (25 ppm Compound I + Trycol 5941 0.2 % v/v): D (1-25)
PHAKPA Control % 14 DAA (100 ppm Compound I + Trycol 5941 0.2 % v/v): C (26-50)
PHAKPA Control % 12 DAA (400 ppm Compound I + Agbem 0.2 % v/v): B (51-75)
PHAKPA Control % 12 DAA (400 ppm Compound I + Agral 0.2 % v/v): B (51-75)
PHAKPA Control % 12 DAA (400 ppm Compound I + Aterbane 0.2 % v/v): B (51-75)
PHAKPA Control % 12 DAA (400 ppm Compound I + Joint 0.2 % v/v): A (76-100)
PHAKPA Control % 12 DAA (400 ppm Compound I + Nimbus 0.2 % v/v): A (76-100)
PHAKPA Control % 12 DAA [1]: B (51-75)
PHAKPA Control % 14 DAA [1]: A (76-100)
PHAKPA Control % 12 DAA (400 ppm Compound I + Vegetable Oil 0.2 % v/v): A (76-100)
